Assay results as given in patent publication US10906890B2, “Triazole phenyl compounds as agonists of the APJ receptor” (AMGEN INC., priority 2016, dated 2021).
pEC50: −log10 of the molar value.

Key:
[1] = molecular target: human APJ-AT1R (angiotensin Type 1) double stable CHO cell line (Homo sapiens (Human), UniProt P35414); experiment: IP1 accumulation (TR-FRET) with AngII in APJ-AT1R double stable CHO cells; assay type: cell-based; conditions: fixed concentration of agonist with different concentrations of AngII
Chain of human APJ-AT1R (angiotensin Type 1) double stable CHO cell line (P35414 whole entry): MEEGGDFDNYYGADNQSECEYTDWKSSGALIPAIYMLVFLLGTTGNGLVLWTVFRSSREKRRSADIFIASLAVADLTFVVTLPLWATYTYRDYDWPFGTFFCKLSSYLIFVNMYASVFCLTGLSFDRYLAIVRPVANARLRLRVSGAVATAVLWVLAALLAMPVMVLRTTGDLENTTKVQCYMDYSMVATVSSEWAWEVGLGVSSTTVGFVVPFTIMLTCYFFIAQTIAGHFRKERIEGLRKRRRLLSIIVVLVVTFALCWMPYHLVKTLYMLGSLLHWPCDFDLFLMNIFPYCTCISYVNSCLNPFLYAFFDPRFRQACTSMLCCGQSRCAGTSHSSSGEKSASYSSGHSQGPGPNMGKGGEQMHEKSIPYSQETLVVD
Procedure: Briefly, the CHO-K1 APJ/AT1R cells were seeded in culture medium of DMEM-F12 and 10% FBS at a density of 15 k/well in a 96 well plate overnight. The next day, the culture medium was replaced with medium containing no serum for 4 hours. The compound AngII at a range of concentrations (1 pM-10 μM) with or without different concentrations of APJ agonists were diluted in stimulation buffer and added to the cell plate. The plate was sealed and incubated for 1 hour. This was followed by addition of IP-d2 conjugate followed by europium cryptate antibody conjugate into the wells. The plate was sealed, followed with incubation for 2 hours at RT. Time-resolved fluorescence resonance energy (TR-FRET) at 620 nm and 665 nm was measured after 2 hours with an Envision reader. The signal ratios and delta F were calculated and the amount of IP1 produced was inversely proportional to the TR-FRET ratio, 665/620 nm.

human APJ receptor = human APJ receptor (Homo sapiens (Human), UniProt P35414); experiment: [35S]GTPγS binding assay on membranes from CHO cells stably expressing human APJ receptor; assay type: biochemical; conditions: means of several independent experiments, read-out: Activity hAPJ SPA EC50 IP
Chain of human APJ receptor (P35414 whole entry): as above
Procedure, shortened: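 Membranes from CHO cells stably expressing FLAG-tagged human APJ incubated with [35S]GTPγS in buffer with optimized GDP, MgCl2 and NaCl levels, 90 min at RT. Signal read by imaging; EC50 by non-linear regression from means of several independent experiments.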

[2] = system: Heart failure rat model (MI Rat Model); experiment: In vivo heart failure (MI) rat model, cardiac contractility; conditions: heart failure rats in vivo, acute settings, with ACE inhibitor captopril
Procedure: Based on the ex vivo findings in isolated heart assay, APJ agonists were dosed in vivo to investigate the translation of cardiac contractility in in vivo settings. Male Lewis rats (Charles River, USA) at 2-3 months of age were used for the study. Heart failure was induced by permanent ligation of the left descending coronary artery which results in injury to the heart with an ejection fraction of <35%. APJ agonists were administered dose dependently acutely for a period of 30 min. Administration of example compounds lead to an increase in cardiac contractility as measured by dP/dtmax (derivative of left ventricular pressure) (Table 29).

Q: CCCCc1nc(Cl)c(CO)n1Cc1ccc(-c2ccccc2-c2nn[nH]n2)cc1 [losartan] was tested. Which “positive cooperativity on AngII IP1 response” value [1] did it give?
A: The value was “relieved this cooperativity”.

Q: COc1cccc(OC)c1-n1c(NS(=O)(=O)[C@@H](C)[C@H](C)c2cnc(C)cn2)nnc1-c1ccccc1 [Example 25.0, (2S,3R)-N-(4-(2,6-dimethoxyphenyl)-5-phenyl-4H-1,2,4-triazol-3-yl)-3-(5-methyl-2-pyrazinyl)-2-butanesulfonamide] was tested. Which pEC50 (human APJ receptor) did it give?
A: The pEC50 was 8.89.

Q: How did the pEC50 (human APJ receptor) turn out when COc1cccc(OC)c1-n1c(NS(=O)(=O)[C@H]2CCCN(c3ncc(Cl)cn3)C2)nnc1-c1ccccc1 (single isomer, unassigned) [Example 35.0, (S)-1-(5-Chloropyrimidin-2-yl)-N-(4-(2,6-dimethoxyphenyl)-5-phenyl-4H-1,2,4-triazol-3-yl)piperidine-3-sulfonamide or (R)-1-(5-chloropyrimidin-2-yl)-N-(4-(2,6-dimethoxyphenyl)-5-phenyl-4H-1,2,4-triazol-3-yl)piperidine-3-sulfonamide] was run?
A: Its pEC50 is 6.55.

Q: With Cc1cnc([C@H](OC(C)C)[C@H](C)S(=O)(=O)Nc2nnc(-c3ccccc3)n2C2CCOCC2)nc1 [Example 63.0, (1S,2S)-1-(1-methylethoxy)-1-(5-methyl-2-pyrimidinyl)-N-(5-phenyl-4-(tetrahydro-2H-pyran-4-yl)-4H-1,2,4-triazol-3-yl)-2-propanesulfonamide] as the compound, how does the pEC50 (human APJ receptor) read?
A: Its pEC50 is 6.38.

Q: With COc1ncnc(OC)c1-n1c(NS(=O)(=O)[C@H]2CCCN(c3ncc(F)cn3)C2)nnc1-c1ccccc1 (single isomer, unassigned) [Example 28.0, (3S)-N-(4-(4,6-dimethoxy-5-pyrimidinyl)-5-phenyl-4H-1,2,4-triazol-3-yl)-1-(5-fluoro-2-pyrimidinyl)-3-piperidinesulfonamide or (3R)-N-(4-(4,6-dimethoxy-5-pyrimidinyl)-5-phenyl-4H-1,2,4-triazol-3-yl)-1-(5-fluoro-2-pyrimidinyl)-3-piperidinesulfonamide] as the compound, how does the pEC50 (human APJ receptor) read?
A: The pEC50 was 6.39.

Q: CO[C@H](c1ncc(C)cn1)[C@H](C)S(=O)(=O)Nc1nnc(-c2ccccc2)n1-c1c(F)cccc1F [Example 41.0, (1R,2S)-N-(4-(2,6-difluorophenyl)-5-phenyl-4H-1,2,4-triazol-3-yl)-1-methoxy-1-(5-methyl-2-pyrimidinyl)-2-propanesulfonamide] was tested. Which pEC50 (human APJ receptor) did it give?
A: The pEC50 was 8.33.

Q: How did the pEC50 (human APJ receptor) turn out when COc1cccc(OC)c1-n1c(NS(=O)(=O)[C@@H](C)Cc2ncc(F)cn2)nnc1-c1ccccc1 (single isomer, unassigned) [Example 8.0, (2S)-N-(4-(2,6-dimethoxyphenyl)-5-phenyl-4H-1,2,4-triazol-3-yl)-1-(5-fluoro-2-pyrimidinyl)-2-propanesulfonamide or (2R)-N-(4-(2,6-dimethoxyphenyl)-5-phenyl-4H-1,2,4-triazol-3-yl)-1-(5-fluoro-2-pyrimidinyl)-2-propanesulfonamide] was run?
A: Its pEC50 is 7.82.

Q: For C[C@H](CS)C(=O)N1CCC[C@H]1C(=O)O [Captopril, captopril], which “improvement in contractility or ejection fraction” value [2] is on record?
A: The value was “does not show a marked improvement in contractility or ejection fraction”.
